Source: ChEMBL document CHEMBL1201862, “PubChem BioAssay data set” (2004)
Active and inactive are the calls of the source.

Tests used:
[1] = tested on: Escherichia coli; experiment: microbe, parasite or virus in culture
[2] = tested on: Escherichia coli; experiment: microbe, parasite or virus in culture; remark: listed apart in the source
[3] = inhibitors of Trypanosoma cruzi host-cell infection, confirmation, beta-gal luminescence, NIH3T3 host cells (AID 2630); assay type: functional, cell-based; conditions: Mus musculus
[4] = tested on: Streptococcus sp. 'group A'; experiment: growth inhibition of control SK(-) GAS strain, dose response, counter-screen for streptokinase expression inhibitor project, luminescence, kanamycin, BacTiterGlo, confirmation (AID 1900); assay type: functional, organism-based
[5] = tested on: Streptococcus; experiment: Group A Streptococcus viability loss, dose response, counter-screen for streptokinase expression inhibitor project, luminescence, BacTiterGlo (AID 1915); assay type: functional, organism-based;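 further: potency for reduction of bacterial viability or growth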
[6] = THP-1 cell cytotoxicity, dose response, cytotoxicity control for non-replicating M. tuberculosis project (AID 489025); assay type: functional
[7] = HepG2 cell cytotoxicity, dose response, cytotoxicity control for non-replicating M. tuberculosis project (AID 489018); assay type: functional; conditions: Mycobacterium tuberculosis
[8] = Vero E6 cell cytotoxicity, dose response, cytotoxicity control for non-replicating M. tuberculosis project, secondary assay (AID 492998); assay type: functional, VeroE6; conditions: Vero C1008
[9] = target: T1, Short transient receptor potential channel 4 (Mus musculus, UniProt Q9QUQ5); experiment: mouse TRPC4 channel activators, dose response, cell-based, HEK293 TRPC4/mu-opioid, Fluo-4 calcium (AID 434937); assay type: functional
T1 sequence (Q9QUQ5 whole entry): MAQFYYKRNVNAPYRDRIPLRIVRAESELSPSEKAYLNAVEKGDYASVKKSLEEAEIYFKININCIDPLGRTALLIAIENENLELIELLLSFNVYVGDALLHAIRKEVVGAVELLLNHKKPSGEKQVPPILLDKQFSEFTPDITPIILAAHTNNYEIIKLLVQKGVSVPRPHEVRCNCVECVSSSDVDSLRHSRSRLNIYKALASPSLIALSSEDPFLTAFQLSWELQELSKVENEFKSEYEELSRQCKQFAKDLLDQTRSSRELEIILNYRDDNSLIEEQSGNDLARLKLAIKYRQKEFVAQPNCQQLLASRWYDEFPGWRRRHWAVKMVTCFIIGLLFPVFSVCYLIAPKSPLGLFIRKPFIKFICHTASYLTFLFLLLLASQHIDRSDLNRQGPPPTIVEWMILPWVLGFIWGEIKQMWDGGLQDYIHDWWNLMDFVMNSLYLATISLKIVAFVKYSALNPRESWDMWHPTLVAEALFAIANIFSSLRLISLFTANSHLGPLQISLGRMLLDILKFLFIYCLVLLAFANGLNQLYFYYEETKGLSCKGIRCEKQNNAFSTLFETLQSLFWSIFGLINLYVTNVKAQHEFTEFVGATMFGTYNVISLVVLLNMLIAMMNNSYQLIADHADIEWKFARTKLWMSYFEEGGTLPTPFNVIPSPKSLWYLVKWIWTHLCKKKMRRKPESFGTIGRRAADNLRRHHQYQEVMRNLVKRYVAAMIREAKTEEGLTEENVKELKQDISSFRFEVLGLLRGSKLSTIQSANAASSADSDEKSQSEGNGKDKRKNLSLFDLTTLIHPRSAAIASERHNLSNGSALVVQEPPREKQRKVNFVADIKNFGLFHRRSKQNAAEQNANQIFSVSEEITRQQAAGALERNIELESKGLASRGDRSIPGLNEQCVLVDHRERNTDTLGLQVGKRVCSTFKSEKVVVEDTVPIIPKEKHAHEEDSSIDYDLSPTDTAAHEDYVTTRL

[10] = cells; assay type: functional
[11] = target: Heat shock protein HSP 90-alpha (Homo sapiens, UniProt P07900); assay type: functional, organism-based
[12] = tested on: Vero; experiment: cells; assay type: functional, cell-based; conditions: Chlorocebus sabaeus
[13] = tested on: Vero; experiment: cells; assay type: functional; conditions: Chlorocebus sabaeus
[14] = human group III sPLA2 inhibitors, dose response, biochemical, QFRET, IC50 (AID 743457);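 further: green fluorescence rise as the enzyme cleaves BODIPY PC-A2 in liposomes; potency for inhibition of the enzyme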
[15] = HEp-2 cell cytotoxicity, dose response, cytotoxicity control for RSV inhibitor project, HTS (AID 2410); assay type: functional; conditions: human respiratory syncytial virus
[16] = growth suppression of PTEN-null colon cells, dose response, cell-based, HCT116 PTEN knockout (AID 1047); assay type: functional;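 further: HCT116 colon tumor cells with PTEN knocked out; cells exposed to compound for 60 hours before readout; potency for loss of cell viability measured by luminescence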
[17] = growth suppression of beta-catenin-knockout colon cells, dose response, cell-based, HCT116, human colon tumor (AID 1045); assay type: functional;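 further: HCT116 colon tumor cells with beta catenin knocked out; cells exposed to compound for 60 hours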
[18] = cytotoxicity in HEK-293T cells, dose response, cytotoxicity control for BCR NF-kB inhibitor project, luminescence, B-cell screen hits (AID 489021); assay type: functional, cell-based;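 further: HEK-293T cells carrying an NF-kB luciferase reporter; cells exposed to compound for about 14 hours before viability readout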
[19] = tested on: HEK293; experiment: cells; conditions: Homo sapiens
[20] = tested on: HEK293; experiment: cells; conditions: Homo sapiens; remark: listed apart in the source
[21] = tested on: Jurkat; experiment: antigen receptor-induced NF-kB inhibitors, dose response, Jurkat, luciferase reporter, luminescence, B- and T-cell (AID 489004); assay type: functional, cell-based; conditions: Homo sapiens;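 further: NF-kB luciferase reporter Jurkat cells stimulated with PMA plus ionomycin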
[22] = cytotoxicity in HEK-293T NF-kB-Luc cells, dose response, cytotoxicity control for B/T-cell NF-kB inhibitor project, cell-based, uHTS hits (AID 489019); assay type: functional;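 further: IC50 reflects cytotoxicity as loss of cell viability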
[23] = target: T2, Microphthalmia-associated transcription factor (Homo sapiens, UniProt O75030); experiment: TRPM1 promoter luciferase signal decrease, dose response, MITF inhibitor project, cell-based, SK-MEL-5, cherry-picked, set 3 (AID 493073); assay type: functional
T2 sequence (O75030 whole entry): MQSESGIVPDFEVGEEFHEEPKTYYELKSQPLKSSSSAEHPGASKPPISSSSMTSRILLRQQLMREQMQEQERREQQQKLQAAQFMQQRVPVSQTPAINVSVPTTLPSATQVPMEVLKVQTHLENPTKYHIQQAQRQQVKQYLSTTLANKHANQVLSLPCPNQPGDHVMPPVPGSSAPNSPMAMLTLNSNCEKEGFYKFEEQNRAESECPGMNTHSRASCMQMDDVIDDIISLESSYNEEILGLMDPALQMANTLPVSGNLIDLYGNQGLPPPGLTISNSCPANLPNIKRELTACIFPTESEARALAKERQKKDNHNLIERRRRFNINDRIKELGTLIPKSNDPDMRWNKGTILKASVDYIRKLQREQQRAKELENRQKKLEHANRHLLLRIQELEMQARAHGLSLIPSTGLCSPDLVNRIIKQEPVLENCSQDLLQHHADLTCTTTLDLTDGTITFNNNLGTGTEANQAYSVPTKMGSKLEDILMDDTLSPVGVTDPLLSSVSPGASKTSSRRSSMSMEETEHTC

[24] = target: Dual specificity tyrosine-phosphorylation-regulated kinase 1A (Rattus norvegicus, UniProt Q63470); assay type: biochemical, Homo sapiens
[25] = inhibitors of HIV Env-driven cell fusion, dose response, cherry-pick (AID 652057); assay type: functional, cell-based
[26] = ZM109 Env clade C HIV-1 fusion inhibitors, dose response, HeLa effector, CEM target cells, luciferase, cherry-pick (AID 652058); assay type: functional, cell-based
[27] = off-target signal loss in HeLa-CEM21 co-culture – HeLa F-luc CTL cells, cherry-picked, counter-screen for HIV-1 Env fusion inhibitor project, dose response (AID 652040); assay type: functional, cell-based;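 further: potency for signal decrease marking cytotoxic or nonspecific inhibition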
[28] = inhibitors of clade B AD8 Env fusion, dose response, cell-based, cherry-pick (AID 652062); assay type: functional;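 further: luciferase signal from cell-cell fusion driven by HIV-1 clade B AD8 Env; potency is for inhibitors of fusion seen as a drop in luminescence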
[29] = MC4R antagonists, dose response, counter-screen for LGR2 antagonist project, cell-based, plate reader, cherry pick (AID 743444); assay type: functional;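 further: transfected HEK 293 cells stimulated with alpha-MSH peptide; potency of inhibitors of the alpha-MSH evoked signal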
[30] = target: T3, Bcl-2-related protein A1 (Mus musculus, UniProt Q07440); assay type: functional;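 further: confirmatory dose–response counterscreen on Bfl-1, used to check hits from a UBC13 polyubiquitin inhibitor campaign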
T3 sequence (Q07440 whole entry): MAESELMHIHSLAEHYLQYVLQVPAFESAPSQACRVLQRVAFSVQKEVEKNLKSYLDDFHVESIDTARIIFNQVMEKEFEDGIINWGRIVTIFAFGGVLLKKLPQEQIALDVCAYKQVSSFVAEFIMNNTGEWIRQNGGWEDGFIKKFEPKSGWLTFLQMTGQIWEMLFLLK

[31] = target: T4, Ubiquitin-conjugating enzyme E2 N (Homo sapiens, UniProt P61088); assay type: functional
T4 sequence (P61088 whole entry): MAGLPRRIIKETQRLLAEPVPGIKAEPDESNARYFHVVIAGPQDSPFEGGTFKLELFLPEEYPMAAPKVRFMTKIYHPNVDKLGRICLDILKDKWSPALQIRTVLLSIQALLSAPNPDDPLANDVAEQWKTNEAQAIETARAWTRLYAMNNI

[32] = target: T4, Ubiquitin-conjugating enzyme E2 N; assay type: functional; remark: listed apart in the source
[33] = target: T5, Small ubiquitin-related modifier 1 (Homo sapiens, UniProt P63165); experiment: inhibitors of SUMO1 peptide binding, dose response, biochemical, fluorescence polarization, uHTS hits (AID 624382); assay type: functional; conditions: read-out: IC50_Mean
T5 sequence (P63165 whole entry): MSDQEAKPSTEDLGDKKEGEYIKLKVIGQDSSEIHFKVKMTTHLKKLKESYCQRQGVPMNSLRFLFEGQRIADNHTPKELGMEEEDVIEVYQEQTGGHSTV

[34] = target: T5, Small ubiquitin-related modifier 1; experiment: inhibitors of SUMO1 partner interactions, dose response, biochemical, FRET (AID 624383); assay type: functional; conditions: read-out: IC50_Mean
[35] = target: T6, Rac GTPase-activating protein 1 (Homo sapiens, UniProt Q9H0H5); experiment: MgcRacGAP GTPase-activating activity inhibitors, confirmation, biochemical, ADP Hunter fluorescence, primary and confirmatory (AID 624330); assay type: functional
T6 sequence (Q9H0H5 whole entry): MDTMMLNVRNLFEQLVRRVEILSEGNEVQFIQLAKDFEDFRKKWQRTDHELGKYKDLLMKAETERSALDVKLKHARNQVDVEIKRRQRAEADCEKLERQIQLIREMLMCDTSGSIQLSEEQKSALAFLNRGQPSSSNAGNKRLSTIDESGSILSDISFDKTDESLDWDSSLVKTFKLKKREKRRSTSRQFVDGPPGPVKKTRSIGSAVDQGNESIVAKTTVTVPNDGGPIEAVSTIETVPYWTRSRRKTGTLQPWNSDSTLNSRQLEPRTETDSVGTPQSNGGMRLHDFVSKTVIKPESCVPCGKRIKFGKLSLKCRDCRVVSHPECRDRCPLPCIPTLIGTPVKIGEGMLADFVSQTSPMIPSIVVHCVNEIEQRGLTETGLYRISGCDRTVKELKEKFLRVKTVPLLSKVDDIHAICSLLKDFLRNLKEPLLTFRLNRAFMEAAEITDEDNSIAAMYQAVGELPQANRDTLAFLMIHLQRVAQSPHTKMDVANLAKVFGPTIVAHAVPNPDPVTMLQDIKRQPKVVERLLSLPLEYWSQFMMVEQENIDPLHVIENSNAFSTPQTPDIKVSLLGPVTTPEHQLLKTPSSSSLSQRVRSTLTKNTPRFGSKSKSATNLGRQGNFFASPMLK

[36] = tested on: A-375; experiment: MITF: Counter assay: A375 proliferation Measured in Cell-Based System Using Plate Reader - 2084-03_Inhibitor_Dose_DryPowder_Activity. [Related pubchem assays (depositor defined):AID488944]; assay type: functional; conditions: Homo sapiens
[37] = tested on: A-375; experiment: A375 melanoma cell viability reduction, dose response, counter-screen for MITF modulator project, cherry-pick samples, set 2 (AID 540335); assay type: functional, cell-based; conditions: Homo sapiens
[38] = tested on: P388/ADR; experiment: cells; assay type: functional; conditions: Mus musculus
[39] = tested on: SN12K1; experiment: cells; assay type: functional; conditions: Homo sapiens
[40] = tested on: P388; experiment: cells; assay type: functional; conditions: Mus musculus
[41] = target: Glucose-6-phosphate 1-dehydrogenase (Homo sapiens, UniProt P11413); experiment: human G6PD enzyme inhibitors, dose response, selectivity assay for P. falciparum G6PD inhibitor project, biochemical, fluorescence (AID 504792); assay type: functional
Sequence of Glucose-6-phosphate 1-dehydrogenase (P11413 whole entry): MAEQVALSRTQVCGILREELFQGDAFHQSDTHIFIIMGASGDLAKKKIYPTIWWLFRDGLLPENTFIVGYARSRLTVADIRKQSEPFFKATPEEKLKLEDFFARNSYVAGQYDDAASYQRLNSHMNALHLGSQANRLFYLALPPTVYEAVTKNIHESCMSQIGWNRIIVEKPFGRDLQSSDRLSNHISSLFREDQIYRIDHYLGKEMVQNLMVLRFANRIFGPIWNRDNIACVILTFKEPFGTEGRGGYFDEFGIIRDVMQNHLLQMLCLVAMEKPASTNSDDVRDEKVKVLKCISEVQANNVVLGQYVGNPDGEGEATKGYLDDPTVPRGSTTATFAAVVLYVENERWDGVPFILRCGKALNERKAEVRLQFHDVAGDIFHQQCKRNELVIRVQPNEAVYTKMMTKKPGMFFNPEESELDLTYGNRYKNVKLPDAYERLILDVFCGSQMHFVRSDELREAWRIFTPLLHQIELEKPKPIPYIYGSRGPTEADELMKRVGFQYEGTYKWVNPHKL

COc1cc(-c2noc(-c3ccccc3C(=O)NCc3ccco3)n2)cc(OC)c1OC
AC50 [1]: 40.5 µM (active)
AC50 [2]: 71.1 µM (active)

Cc1cc(C)n(CC(=O)N2CCCC(C(=O)c3cccc(OC(C)C)c3)C2)n1 (centres undefined)
EC50 [3]: 14.1 µM (active)

CC(Oc1ccc(Cl)cc1)C(=O)NNC(=S)NC(=O)c1ccco1 (centres undefined)
EC50 [4]: 0.571 µM (active)
EC50 [5]: 2.29 µM (active)
CC50 [6]: 13.7 µM (active)
CC50 [7]: > 20 µM (active)
CC50 [8]: 11.2 µM (active)
EC50 [9]: 5.31 µM (active)
IC50 [10]: 9.22 µM (active)
AC50 [11]: 1.41 µM (active)
IC50 [12]: > 25 µM (active)
CC50 [13]: > 25 µM (active)
IC50 [14]: 34.9 µM (inactive)

CC1=CC(C)(C)Nc2ccc(OC(=O)CN3C(=O)c4ccccc4C3=O)cc21
CC50 [15]: 6.94 µM (active)
EC50 [16]: 9.51 µM (active)
EC50 [17]: 5.85 µM (active)
CC50 [6]: 6.68 µM (active)
CC50 [8]: 13.6 µM (active)
IC50 [18]: 58.6 µM (inactive)
EC50 [19]: > 59.6 µM (inactive)
EC50 [20]: > 59.6 µM (inactive)

Cc1ccc2nc(NC(=O)CCCC(=O)O)sc2c1
IC50 [21]: 0.8 µM (active)
IC50 [22]: > 80 µM (inactive)
AC50 [23]: 12.1 µM (active)
AC50 [24]: 4.63 µM (active)
AC50 [25]: 1.42 µM (active)
AC50 [26]: 0.62 µM (active)
AC50 [27]: 2.82 µM (active)
AC50 [28]: 1.02 µM (active)
AC50 [29]: 44.1 µM (active)

O=C(Nc1ccc(C2=NCCN2)cc1)c1ccc(C(=O)Nc2ccc(C3=NCCN3)cc2)c([N+](=O)[O-])c1
IC50 [30]: 4.88 µM (active)
IC50 [31]: 3.11 µM (active)
IC50 [32]: 2.17 µM (active)
IC50 [33]: > 66.6 µM (inactive)
IC50 [34]: 3.28 µM (active)
IC50 [35]: 33.1 µM (active)
AC50 [2]: 243 µM (active)

COc1ccc(/C=C/c2cc(C(F)(F)F)on2)cc1
AC50 [36]: > 35 µM (active)
AC50 [37]: > 35 µM (active)

CN(C)CC1CC/C(=C\c2ccc(O)cc2)C1=O (centres undefined)
AC50 [23]: 12.9 µM (active)
AC50 [11]: 4.38 µM (active)
AC50 [36]: > 35 µM (active)
AC50 [37]: > 35 µM (active)
GI50 [38]: 1.69 µM (inactive)
GI50 [39]: 1.78 µM (inactive)
GI50 [40]: 0.491 µM (active)

Cc1[nH]c2ccccc2c1/C=N/NC(=O)c1cccc(S(=O)(=O)Nc2ccccc2Cl)c1
IC50 [41]: > 80 µM (inactive)

COc1ccc(NC(C)C(=O)N/N=C/c2cc(Br)ccc2OC)cc1 (centres undefined)
IC50 [41]: > 80 µM (inactive)
